From patent US7585519B2, “Esters of L-carnitine or alkanoyl L-carnitines useful as cationic lipids for the intracellular delivery of pharmacologically active compounds” (Sigma-Tau Industrie Farmaceutiche Riunite S.p.A., priority 1999, dated 2009)
Several values for one entry are separate records, joined by “and”; a condition that tells them apart may be missing. Equal values may be shown once. Blank lines part the entries; values can stand above or below the compound they belong to.

Assays:
M109 cells = test: In-vitro cytotoxicity test (sulforhodamine B, SRB); format: cell-based, murine; conditions: for optical density reading at 540 nm (Mean): Table 2.3; for optical density reading at 540 nm (single reading): Table 2.3, listed as DMSO-CPT 83
Experimental: The toxicity assays were done on HeLa and M109 cells in 96-well plates. On the day after plating, the cells were treated with the molecules being tested for the next 48 hours. The cells were then washed with PBS and left in normal growth conditions for 48 hours. After removal of the growth medium, the cells were incubated on ice with 16% TCA, washed 3 times in H2O, treated for 30 minutes with sulforhodamine B (SRB) in 1% acetic acid, washed 3 times in 1% acetic acid alone, incubated for 20 minutes in TRIS 10 mM pH 10.5 and, lastly, readings were taken at 540 nm. To evaluate the ability of the liposome to transport CPT 83 in vitro in M109 cells the sulforhodamine B test described above was used. In addition, the cytotoxicity of CPT 83 dissolved in dimethyl-sulphoxide (DMSO) was also evaluated as compared to that of the same molecule complexed with the ST 983 liposome. The liposome-CPT 83 complex was used in the cytotoxicity assays at the concentrations indicated in Tables 2.1, 2.2 and […] here below in both the SUV and MLV configurations. The liposome:CPT 83 molar ratio used was 40:1.

[1] = system: luciferase gene of pCMVluc plasmid in liver, lung and heart; test: In-vivo plasmid DNA transfection test (luciferase activity in tissues); design: species or system Balb/c mice; conditions: molar ratio 12:1
[2] = system: luciferase gene of pCMVluc plasmid in liver, lung and heart; test: as above; design: species or system Balb/c mice
Experimental: In the in-vivo experiments, both DOTAP and [2,3-(dioleoyl)propyl]trimethylammonium (DOTMA) were used as reference cationic lipids.
The molar ratios defined in the results refer to nmol concentrations of the respective cationic lipids per […] of DNA.
In the in-vivo transfection experiments, 25 μg of plasmid DNA per animal were used.
The plasmid pCMVluc used in these experiments contained the cDNA of the luciferase gene under the transcriptional control of the cytomegalovirus (CMV) promoter.
Protein luciferase activity in cells and tissues was determined using the Boehringer Mannheim kit (cat no. 1669 893).
The cells were washed 3 times in PBS and then removed from the plate with a scraper in lysis buffer (100 mM potassium phosphate pH 7.8. 1 mM dithiothreitol-DTT) and submitted to three consecutive cycles of freezing and thawing. After centrifuging in 1.5 mL Eppendorf tubes, the supernatant was used for the luminescence test not more than 5 hours after extraction of the proteins. Luminescence emission measurements were done using a luminometer at 562 nm. After a first freezing in liquid N2 followed by fine crushing to obtain a powder, the tissues were resuspended in lysis buffer and incubated for 10-15 min in ice.
The samples were then centrifuged in 2 ml Eppendorf tubes and the supernatant was tested for luciferase activity.
Both DOTAP and DOTMA were used as reference cationic lipids, the transfection capacity of which has been amply characterised and described by Abkenet et al., Proc. Natl. Acad. Sci. USA 1993, 90, 6518. In the in-vivo experiments, various different molar ratios of cationic lipids to plasmid DNA were analysed for the purposes of determining the activity of the cationic lipids and the respective most efficient concentrations for gene transfer. The transfection capability of the various liposomes was evaluated both in vitro and in vivo using the luciferase gene […] contained in the pCMVluc plasmid, the activity of which, in terms of relative luminescence units (RLU) (described previously) made for easy quantification.
In this experiment, the dependence of liver, lung and heart transfection efficiency on the ST 983 liposome:plasmid DNA molar ratio was evaluated. The following nmol ratios of liposome per μg DNA were tested: 12:1, 24:1, 36:1 and 48:1.
Groups of 6 Balb/c mice weighing approximately 20 g were treated intravenously with the above-mentioned amounts of liposome-DNA complex in 200 μl volumes of PBS and were sacrificed 24 hours after administration of the complex.

[3] = system: murine pulmonary carcinoma M109
Experimental: To induce the tumour in vivo, unanaesthetised Balb/c mice received injections of 3×10^5 cells of murine pulmonary carcinoma M109 in 0.1 ml RPMI-1640 (Sigma) in the quadriceps femoris of the right rear paw.
Taxol (paclitaxel INDENA) used as a control was dissolved in the cremophor vehicle EL (BASF) at a concentration of 20 mg/mL and stored at +4° C. for the next 24 hours, protected against the light. At the time of use, it was diluted with phosphate-buffered saline solution (PBS, SIGMA) and injected intravenously in the same volume and concentration conditions as described for taxol transported by the ST 983 liposome.
The cremophor was prepared by diluting 1:1 with ethyl alcohol.
Administrations were given for seven consecutive days starting from day 10 after inoculation of the tumour. The animals were kept under observation up to day 17 post-inoculation and sacrificed by cervical dislocation, and their lungs were removed for determination of the number of metastases. Staining of the lungs to detect metastases was done by incubating the lungs for 10 days in 5 ml of Bouin's solution, consisting of 71% saturated picric acid solution, 4.8% glacial acetic acid (Merck), and 24% 10% formaldehyde (Fluka). At the end of the incubation period in Bouin's solution, the numbers of metastases were counted.
Statistical analysis of the data for the number of lung metastases was done using the Mann-Whitney non-parametric tests for unpaired data.

HeLa cells = conditions: liposome 9 μM, 2.5 μg plasmid DNA, versus DOTAP, FIGS. 1 and 2
Experimental: Liposome and plasmid DNA were suitably diluted separately in PBS. The DNA was then added to the liposome and the liposome-DNA complex was left for approximately 30 min at 4° C. to facilitate the formation of a stable liposome-DNA interaction.
In the in-vitro experiments, 1,2-dioleoyloxy-3-trimethyl-ammonium propane (DOTAP) was used as a reference cationic lipid; 2.5 μg of plasmid DNA were used per 2×10^5 HeLa cells, and the liposome concentration was 9 μM.
5 μg of the DNA extracted from the cells were preabsorbed on nylon filters (Boehringer) using the Biorad dot-blot appliance. The filters were then prehybridised for 4 hours at 65° C. with a solution containing 0.5 M of sodium pyrophosphate (NaPi), 1 mM EDTA, 7% SDS. […] The autoradiographic analysis was carried out with the aid of a phosphor imager which uses phosphor screens activated by beta-radiation which are read and quantified by means of a photomultiplier system in conjunction with an image analysis program. […]
As an alternative, the transfection efficiency of a number of cationic liposomes was evaluated by means of densitometric analysis (phosphor imager) of samples of DNA extracted from transfected cells preabsorbed on nitrocellulose filters (dot-blot) and hybridised with ^32P-labelled plasmid DNA markers, as described previously.

[4] = liposome/DNA preincubation time 30 min.
[5] = liposome/DNA preincubation time 3 h
[6] = ST 983:DNA molar ratio 24:1, i.v., 24 hours
[7] = ST 983:DNA molar ratio 36:1, i.v., 24 hours
[8] = ST 983:DNA molar ratio 48:1, i.v., 24 hours
[9] = liposome:DNA molar ratio 12:1, i.v., 24 hours

Compound: CC[C@@]1(O)C(=O)OCc2c1cc1n(c2=O)Cc2c-1nc1ccccc1c2C#N [CPT 83, 7-carbonitrile camptothecin]
optical density reading at 540 nm (Mean) (M109 cells; 0.0013 μM): 0.8399
optical density reading at 540 nm (single reading) (M109 cells; 0.0013 μM): 0.863 and 0.795 and 0.831 and 0.878 and 0.809 and 0.816 and 0.886 and 0.841
optical density reading at 540 nm (Mean) (M109 cells; 0.013 μM): 0.82
optical density reading at 540 nm (single reading) (M109 cells; 0.013 μM): 0.851 and 0.79 and 0.806 and 0.81 and 0.8 and 0.804 and 0.863 and 0.836
optical density reading at 540 nm (Mean) (M109 cells; 0.13 μM): 0.4446
optical density reading at 540 nm (single reading) (M109 cells; 0.13 μM): 0.474 and 0.467 and 0.429 and 0.421 and 0.406 and 0.407 and 0.57 and 0.383
optical density reading at 540 nm (Mean) (M109 cells; 1.3 μM): 0.309
optical density reading at 540 nm (single reading) (M109 cells; 1.3 μM): 0.318 and 0.317 and 0.328 and 0.305 and 0.33 and 0.302 and 0.285 and 0.287
optical density reading at 540 nm (Mean) (M109 cells; 13 μM): 0.2921
optical density reading at 540 nm (single reading) (M109 cells; 13 μM): 0.285 and 0.288 and 0.312 and 0.318 and 0.281 and 0.267 and 0.3 and 0.286

Mean RLU/mg protein ± s.d. heart [1, 4]: 8118 +/− 263 RLU/mg protein
Mean RLU/mg protein ± s.d. liver [1, 4]: 3526 +/− 260 RLU/mg protein
Mean RLU/mg protein ± s.d. Lung [1, 5]: 4225656 +/− 211731 RLU/mg protein
Mean RLU/mg protein ± s.d. heart [1, 5]: 37100 +/− 1853 RLU/mg protein
Mean RLU/mg protein ± s.d. Lung [2, 6]: 2257856 +/− 280480 RLU/mg protein
Mean RLU/mg protein ± s.d. heart [2, 6]: 7091 +/− 249 RLU/mg protein
Mean RLU/mg protein ± s.d. liver [2, 6]: 1310 +/− 385 RLU/mg protein
Mean RLU/mg protein ± s.d. Lung [2, 7]: 301107 +/− 21503 RLU/mg protein
Mean RLU/mg protein ± s.d. heart [2, 7]: 8351 +/− 477 RLU/mg protein
Mean RLU/mg protein ± s.d. liver [2, 7]: 1035 +/− 347 RLU/mg protein
Mean RLU/mg protein ± s.d. Lung [2, 8]: 112747 +/− 5655 RLU/mg protein
Mean RLU/mg protein ± s.d. heart [2, 8]: 5251 +/− 489 RLU/mg protein
Mean RLU/mg protein ± s.d. liver [2, 8]: 1571 +/− 156 RLU/mg protein
share of the total luciferase extracted from lung, heart and liver located in the lungs ([2]; all molar ratios analysed): approximately 99%
Mean RLU/mg protein ± s.d. Lung ([2]; liposome/DNA preincubation time 30 min., molar ratio 12:1): 874882 +/− 65917 RLU/mg protein
Mean RLU/mg protein ± s.d. liver ([2]; liposome/DNA preincubation time 3 h, molar ratio 12:1): 2497 +/− 682 RLU/mg protein
Mean RLU/mg protein ± s.d. Lung [2, 9]: 8818442 +/− 449529 RLU/mg protein
Mean RLU/mg protein ± s.d. heart [2, 9]: 28875 +/− 2593 RLU/mg protein
Mean RLU/mg protein ± s.d. liver [2, 9]: 2589 +/− 140 RLU/mg protein
increase in luciferase activity in the lung and heart, 3 hours versus 30 minutes preincubation ([2]; molar ratio 12:1): approximately 5 fold
Compound: CCCCCCCCCCCCCCCC(=O)O[C@H](CC(=O)OCCCCCCCCCCC)C[N+](C)(C)C.[Cl-] [ST 983, palmitoyl L-carnitine chloride undecyl ester]
in-vivo plasmid DNA transport efficiency compared with DOTMA ([2]; lung, molar ratio 12:1): efficiency ratings higher than and/or comparable to those of DOTMA

Compound: CC(=O)O[C@H]1C(=O)[C@@]2(C)[C@H]([C@H](OC(=O)c3ccccc3)[C@]3(O)C[C@H](OC(=O)[C@H](O)[C@@H](NC(=O)c4ccccc4)c4ccccc4)C(C)=C1C3(C)C)[C@]1(OC(C)=O)CO[C@@H]1C[C@@H]2O [Taxol, paclitaxel]
effect on pulmonary metastases compared to untreated control mice ([3]; M109, Balb/c mice, i.v.): no reducing effect on the number of pulmonary metastases
metastases size ([3]; lung metastases at 17th day after M109 inoculation, BALB/c mice): S (S = small (<1 mm diameter))
metastases Mean ± s.d ([3]; lung metastases at 17th day after M109 inoculation, BALB/c mice, i.v. for seven consecutive days from day 10): 22 ± 9

Compound: ester of propionyl L-carnitine bromide with 2-hydroxy acetyl 1,3 dipalmitoyl glycerol [ST 772]
amounts of plasmid DNA in transfected cells (blot analysis) (HeLa cells): same order of magnitude as obtained with DOTAP
